# Where two headings read alike, the source gives them in different places. Where a SMILES comes first, the peptide text is derived from it. Bridges are numbered along the chain shown (N, C = ends). [ ]: non-standard residue; d: D form. dOrn = NCCC[C@@H](N)C(=O)O
# Columns and labels:
# [1] = Acute tolerability in mice; assay type: in vivo; details: doses up to 220 mg kg^−1 per day (divided into four doses over 20 hours, subcutaneous)
# E. coli C1507 = details: broth microdilution, Ca+ MHB Medium; MDR clinical isolate
# Red blood cells (RBCs) = experiment: Haemolysis assay; assay type: cell-based; details: human RBCs 1:50 in PBS pH 7.4, 37 °C, 1 h, absorbance 540 nm
# Experimental: Human blood was obtained from BioIVT (USA). Red blood cells (RBCs) were separated from blood by centrifugation at 500g for 5 min. Plasma was removed and the RBCs were washed twice with 150 mM NaCl, using a volume equivalent to the removed plasma. After washing, phosphate-buffered saline (PBS) with a pH of 7.4, in a volume equal to the removed plasma, was added to create the RBC suspension. Using a Labcyte Echo acoustic dispenser (Beckman Coulter), 1 µl of the compound was added to the wells of a 96-well V-bottom plate. The final concentration of DMSO was kept at 1% (v/v), with a DMSO-only negative control included in each replicate. For the positive control, 10 µl of Triton X-100 was added, starting at a concentration of 20% and serially diluted twofold to 0.02%. RBCs were diluted 1:50 in PBS (pH 7.4), and 99 µl of this diluted solution was added to each well. The plates were incubated at 37 °C for 1 h, then centrifuged at 500g for 5 min to pellet the intact RBCs. Sixty-five microlitres of the supernatant was transferred to a clear, flat-bottom 96-well plate, and the absorbance was measured at 540 nm.
compound,measurement,setting,value
"C[C@@H](O)[C@@H]1NC(=O)[C@@H](CCCNC(=N)N)NC(=O)[C@@H](CCCNC(=N)N)NC(=O)[C@@H](CC(N)=O)NC(=O)[C@@H](NC(=O)[C@@H](Cc2ccccc2)NC(=O)[C@@H](CCCN)NC(=O)[C@H](N)CCCNC(=N)N)[C@@H](C)OC(=O)[C@H](Cc2c[nH]cn2)NC1=O [MKM-A, manikomycin] (H-[dR][dOrn][dF]T[dN][dR][dR]TH; ester 4-C)",MIC,E. coli BW25113; BW25113,4 µg/mL
same,MIC,"E. coli BW25113; broth microdilution, Ca+ MHB Medium (cation-adjusted MHB)",32 µg/mL
same,acute tolerability,[1],acceptable acute tolerability
same,MIC,E. coli C1507,32 µg/mL
same,Haemolysis (256 μg/ml),Red blood cells (RBCs),<1%
